Measurements: PubChem BioAssay (NCI)
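Interpolation was linear, between the two tested concentrations surrounding the appropriate level; five concentrations were tested over 48 hours in 96-well plates. At the GI50, growth is halved. TGI: concentration producing complete growth inhibition.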

What was measured:
Test in all cases: growth of human tumour cells (NCI), 48 h
[1] = system: COLO 205 colon
[2] = system: SW-620 colon
[3] = system: A498 renal
[4] = system: UACC-257 melanoma
[5] = system: MDA-MB-468 breast
[6] = system: M14 melanoma
[7] = system: IGROV1 ovarian
[8] = system: SF-539 CNS
[9] = system: MALME-3M melanoma
[10] = system: HOP-62 NSCLC
[11] = system: RPMI-8226 leukemia
[12] = system: SF-268 CNS
[13] = system: OVCAR-5 ovarian
[14] = system: RXF 393 renal
[15] = system: TK-10 renal
[16] = system: NCI-H23 lung
[17] = system: DU-145 prostate
[18] = system: HL-60(TB) leukemia
[19] = system: SR leukemia
[20] = system: A549 NSCLC
[21] = system: MOLT-4 leukemia
[22] = system: NCI/ADR-RES ovarian
[23] = system: PC-3 prostate
[24] = system: HS 578T breast
[25] = system: CCRF-CEM leukemia
[26] = system: HCC-2998 colon
[27] = system: HOP-92 NSCLC
[28] = system: SK-MEL-28 melanoma
[29] = system: SK-MEL-2 melanoma
[30] = system: HCT-116 colon
[31] = system: HT29 colon
[32] = system: U251 CNS
[33] = system: MDA-MB-435
[34] = system: KM12 colon
[35] = system: NCI-H522 lung
[36] = system: SNB-19 CNS
[37] = system: T-47D breast
[38] = system: HCT-15 colon
[39] = system: LOX IMVI melanoma
[40] = system: NCI-H460 lung
[41] = system: ACHN renal
[42] = system: K-562 leukemia
[43] = system: SK-MEL-5 melanoma
[44] = system: EKVX NSCLC
[45] = system: CAKI-1 renal
[46] = system: OVCAR-3 ovarian
[47] = system: NCI-H226 lung
[48] = system: OVCAR-4 ovarian
[49] = system: BT-549 breast
[50] = system: UACC-62 melanoma
[51] = system: SN12C renal
[52] = system: SK-OV-3 ovarian
[53] = system: SF-295 CNS
[54] = system: 786-0 renal
[55] = system: UO-31 renal
[56] = system: SNB-75 CNS
[57] = system: OVCAR-8 ovarian
[58] = system: MCF7 breast
[59] = system: MDA-MB-231 breast

SMILES: Nc1nn2c(-c3cc4cc(Br)ccc4oc3=O)ccnc2c1N=Nc1ccccc1
- GI50 [1]: 23.2 µM
- TGI [1]: > 100 µM
- GI50 [2]: 6.24 µM
- TGI [2]: > 100 µM
- GI50 [3]: 1.97 µM
- TGI [3]: 6.71 µM
- GI50 [4]: 11.8 µM
- TGI [4]: 40.9 µM
- GI50 [5]: 2.21 µM
- TGI [5]: 9.7 µM
- GI50 [6]: 16 µM
- TGI [6]: > 100 µM
- GI50 [7]: 4.57 µM
- TGI [7]: 33.9 µM
- GI50 [8]: 1.99 µM
- TGI [8]: 3.88 µM
- GI50 [9]: 2.72 µM
- TGI [9]: 10.9 µM
- GI50 [10]: 1.84 µM
- TGI [10]: 4.23 µM
- GI50 [11]: 31.6 µM
- TGI [11]: > 100 µM
- GI50 [12]: 2.12 µM
- TGI [12]: 5.66 µM
- GI50 [13]: 3.29 µM
- TGI [13]: 15.1 µM
- GI50 [14]: 1.99 µM
- TGI [14]: 4.95 µM
- GI50 [15]: 12.7 µM
- TGI [15]: 37.2 µM
- GI50 [16]: 2.33 µM
- TGI [16]: 5.57 µM
- GI50 [17]: 4.71 µM
- TGI [17]: > 100 µM
- GI50 [18]: > 100 µM
- TGI [18]: > 100 µM
- GI50 [19]: 5.38 µM
- TGI [19]: > 100 µM
- GI50 [20]: 3.42 µM
- TGI [20]: 29.3 µM
- GI50 [21]: 31.8 µM
- TGI [21]: > 100 µM
- GI50 [22]: 2.07 µM
- TGI [22]: 4.54 µM
- GI50 [23]: 2.92 µM
- TGI [23]: 9.32 µM
- GI50 [24]: 3.11 µM
- TGI [24]: 17 µM
- GI50 [25]: 24.6 µM
- TGI [25]: > 100 µM
- GI50 [26]: 3.17 µM
- TGI [26]: 14.8 µM
- GI50 [27]: 2.21 µM
- TGI [27]: 6.04 µM
- GI50 [28]: 5.02 µM
- TGI [28]: 22.3 µM
- GI50 [29]: 3.96 µM
- TGI [29]: 19.8 µM
- GI50 [30]: 2.23 µM
- TGI [30]: 4.73 µM
- GI50 [31]: 3.13 µM
- TGI [31]: 11.5 µM
- GI50 [32]: 2.01 µM
- TGI [32]: 4.4 µM
- GI50 [33]: 5.31 µM
- TGI [33]: > 100 µM
- GI50 [34]: 3.32 µM
- TGI [34]: > 100 µM
- GI50 [35]: 1.9 µM
- TGI [35]: 4.19 µM
- GI50 [36]: 1.94 µM
- TGI [36]: 4.26 µM
- GI50 [37]: 2.79 µM
- TGI [37]: 13.2 µM
- GI50 [38]: 4.87 µM
- TGI [38]: > 100 µM
- GI50 [39]: 3.09 µM
- TGI [39]: 10.7 µM
- GI50 [40]: 1.95 µM
- TGI [40]: 5.05 µM
- GI50 [41]: 3.16 µM
- TGI [41]: 14.4 µM
- GI50 [42]: 26.7 µM
- TGI [42]: > 100 µM
- GI50 [43]: 2.71 µM
- TGI [43]: 8.1 µM
- GI50 [44]: 3.29 µM
- TGI [44]: 18 µM
- GI50 [45]: 5.55 µM
- TGI [45]: 25.2 µM
- GI50 [46]: 3.24 µM
- TGI [46]: 23.9 µM
- GI50 [47]: 2.16 µM
- TGI [47]: 5.84 µM
- GI50 [48]: 2.89 µM
- TGI [48]: 15.3 µM
- GI50 [49]: 1.92 µM
- TGI [49]: 3.77 µM
- GI50 [50]: 5.52 µM
- TGI [50]: 22.1 µM
- GI50 [51]: 1.91 µM
- TGI [51]: 4.92 µM
- GI50 [52]: 1.87 µM
- TGI [52]: 3.95 µM
- GI50 [53]: 2.1 µM
- TGI [53]: 4.88 µM
- GI50 [54]: 2.01 µM
- TGI [54]: 4.71 µM
- GI50 [55]: 11.1 µM
- TGI [55]: 86.6 µM
- GI50 [56]: 1.29 µM
- TGI [56]: 3.18 µM
- GI50 [57]: 2.24 µM
- TGI [57]: 5.36 µM
- GI50 [58]: 3.24 µM
- TGI [58]: 17.5 µM
- GI50 [59]: 1.99 µM
- TGI [59]: 4.43 µM

SMILES: C=C1CC[C@@H]2[C@]3(C)COC(c4cn[nH]c4-c4ccc(OC)cc4)O[C@@H]3CC[C@@]2(C)[C@@H]1C/C=C1/C(=O)OCC1O (stereo not given in full)
- GI50 [1]: 1.95 µM
- TGI [1]: 3.73 µM
- GI50 [2]: 2.29 µM
- TGI [2]: 5.56 µM
- GI50 [3]: 17 µM
- TGI [3]: 50.5 µM
- GI50 [4]: 2.46 µM
- TGI [4]: 8.92 µM
- GI50 [5]: 2.17 µM
- TGI [5]: 5.6 µM
- GI50 [6]: 3.14 µM
- TGI [6]: 13.2 µM
- GI50 [7]: 3.98 µM
- TGI [7]: 20 µM
- GI50 [8]: 2.03 µM
- TGI [8]: 4.36 µM
- GI50 [9]: 1.74 µM
- TGI [9]: 3.64 µM
- GI50 [10]: 3.44 µM
- TGI [10]: 14.2 µM
- GI50 [12]: 3.25 µM
- TGI [12]: > 100 µM
- GI50 [13]: 3.9 µM
- TGI [13]: 13.4 µM
- GI50 [14]: 1.74 µM
- TGI [14]: 3.4 µM
- GI50 [15]: 4.12 µM
- TGI [15]: 16.7 µM
- GI50 [16]: 2.51 µM
- TGI [16]: 7.69 µM
- GI50 [17]: 3.23 µM
- TGI [17]: 12.1 µM
- GI50 [18]: 2.69 µM
- TGI [18]: 14.7 µM
- GI50 [19]: 2.87 µM
- TGI [19]: > 100 µM
- GI50 [20]: 3.32 µM
- TGI [20]: 19.5 µM
- GI50 [21]: 2.21 µM
- TGI [21]: > 100 µM
- GI50 [23]: 2.98 µM
- TGI [23]: > 100 µM
- GI50 [25]: 2.08 µM
- TGI [25]: 6.9 µM
- GI50 [26]: 2.87 µM
- TGI [26]: 8.28 µM
- GI50 [27]: 2.02 µM
- TGI [27]: 5 µM
- GI50 [28]: 2.54 µM
- TGI [28]: 5.91 µM
- GI50 [29]: 3.97 µM
- TGI [29]: 17.8 µM
- GI50 [30]: 1.86 µM
- TGI [30]: 3.57 µM
- GI50 [31]: 2.86 µM
- TGI [31]: 7.91 µM
- GI50 [32]: 2.77 µM
- TGI [32]: 10.7 µM
- GI50 [33]: 2.24 µM
- TGI [33]: 6.42 µM
- GI50 [34]: 2.38 µM
- TGI [34]: 5.43 µM
- GI50 [35]: 2.49 µM
- TGI [35]: 7.81 µM
- GI50 [36]: 4.42 µM
- TGI [36]: 19.4 µM
- GI50 [37]: 3.25 µM
- TGI [37]: > 100 µM
- GI50 [38]: 2.54 µM
- TGI [38]: 8.37 µM
- GI50 [39]: 1.73 µM
- TGI [39]: 3.42 µM
- GI50 [40]: 1.91 µM
- TGI [40]: 3.9 µM
- GI50 [41]: 3.52 µM
- TGI [41]: 14.1 µM
- GI50 [42]: 2.71 µM
- TGI [42]: > 100 µM
- GI50 [43]: 1.52 µM
- TGI [43]: 2.95 µM
- GI50 [44]: 2.66 µM
- TGI [44]: 10.5 µM
- GI50 [45]: 2.96 µM
- TGI [45]: 12.1 µM
- GI50 [46]: 2.27 µM
- TGI [46]: 5.87 µM
- GI50 [47]: 3.58 µM
- TGI [47]: 18.4 µM
- GI50 [48]: 2.96 µM
- TGI [48]: > 100 µM
- GI50 [49]: 2.36 µM
- TGI [49]: 7.22 µM
- GI50 [50]: 1.68 µM
- TGI [50]: 4.06 µM
- GI50 [51]: 3.54 µM
- TGI [51]: 16.5 µM
- GI50 [52]: 10.5 µM
- TGI [52]: 67.4 µM
- GI50 [53]: 2.13 µM
- TGI [53]: 4.77 µM
- GI50 [54]: 1.92 µM
- TGI [54]: 3.6 µM
- GI50 [55]: 1.7 µM
- TGI [55]: 3.91 µM
- GI50 [56]: 1.75 µM
- TGI [56]: 5.86 µM
- GI50 [57]: 3.34 µM
- TGI [57]: > 100 µM
- GI50 [58]: 2.48 µM
- TGI [58]: 11.8 µM
- GI50 [59]: 2.39 µM
- TGI [59]: 5.48 µM
